Entries after “also recorded” stand apart in the source; their conditions may differ.
Key:
[1] = In vivo pharmacokinetics in SD rats; conditions: Sprague-Dawley, plasma, Rat
Protocol: Study design: […]). Group 1 was dosed with STP0404 at 1 mg/kg by single intravenous administration. […] The vehicle used for IV study was DMSO: PEG400: […] Blood samples were collected at 0.0833, 0.25, 0.5, 1, 2, 4, 8, 12 (only for PO groups) and 24 hrs post-dose for Groups 1 to 4. STP0404 concentrations in plasma samples were determined by LC-MS/MS. Preclinical Dog pharmacokinetics study (Study no. 400751-2015020201-DPK): A total of 6 male Beagle dogs were divided into two groups (3 animals/group). Following single STP0404 2 mg/kg oral and intravenous administration to Beagle Dogs, STP0404 concentration was determined in plasma, and pharmacokinetic parameters were calculated. […] The concentrations of STP0404 in plasma were determined by using a LC/MS/MS method.

[2] = test system: SIVmac239; assay: In vitro efficacy test against SIVmac239 in CEMx174 cells (p27); format: cell-based, SIV; conditions: p27 assay
Protocol: CEMx174 cells were infected with HIV-1 primary isolate 89.6 (From infectious clone p89.6, NIH AIDS Reagent Program) at approximately at 10% of cell population determined by FACS analyses. To determine antiviral activity during virus production, STP0404 was added at concentration in the range of 0.1 nM—10 μM during media exchange at 4 hrs post-infection. DMSO was used as a negative control. Cell-free supernatants were measured for p24 antigen production, 5 days post-infection. The anti-HIV-1 efficacy of the two enantiomers of STP0404 were also determined by using the same protocol. All assays were conducted in triplicates. […] For SIVmac239, CEMx174 cells were infected with viral supernatant containing SIVmac293 at 50,000 TCID50/mL (kind gift from Dr. G. Silvestri, Emory Yerkes National Primate Research Center) with 100 μL/10^6 cells at varying concentrations of STP0404, BI224436, and Raltegravir, and the same above protocol was followed except for that p27 capsid antigen content was measured daily for 5 days post infection.
Supplementary file ppat.1009671.s004.tiff: S1 Fig In vitro efficacy tests of STP0404, BI224436 and Raltegravir against SIVmac239 in CEMx174 cell culture. CEMx174 cells were infected with SIVmac239 with various concentrations of STP0404, BI224436, and Raltegravir, and the viral production was determined by p27 assay at 5 days post infection. […]

[3] = test system: CYP3A and PXR; assay: PXR induction in DPX2 cells; format: in vitro ADME
Protocol: STP0404 to activate PXR, and thereby to induce CYP3A4 expression in DPX2 cell lines following in vitro administration. […] After 48 hrs incubation, the cell viability was assessed fluorimetrically via CellTiter-FluorTM. CYP3A-mediated metabolism and PXR activation are measured using luminescence with Luciferin-IPA and ONE-GloTM, respectively. The light intensity is directly proportional to the extent of PXR activation and accompanying gene transcription in the DPX2 cells (Wuxi AppTec, China).

[4] = target: T1, full-length IN (Human immunodeficiency virus type 1 group M subtype B, UniProt P12497); assay: HTRF-based IN multimerization assay; format: biochemical, HIV-1
T1 construct: between two full-length IN protein populations differentially labeled
Protocol: To test the ability of STP0404 to induce higher-order multimerization of IN we employed homogeneous time-resolved fluorescence (HTRF)-based assay. Briefly, His-tagged and FLAG-tagged INs (each at 10 nM final concentration) were mixed in buffer containing 25 mM Tris, pH 7.4, 150 mM NaCl, 2 mM MgCl2, 0.1% Nonidet P-40 and 1 mg/ml BSA. This mixture was incubated with various concentrations of the test compounds for 3 hrs at room temperature. The detection is based on anti-His6-XL665 and anti-FLAG-EuCryptate antibodies (Cisbio, Inc., Bedford, MA) which were added to the reaction and incubated at room temperature for 3 hrs. The HTRF signal was recorded by PerkinElmer EnSpire multimode plate reader and OriginLab software was used to calculate the EC50 values.

[5] = test system: bone marrow cells; assay: Micronucleus study by oral administration in rats (GLP); format: in vivo, SD rats; conditions: 500, 1000 and 2000 mg/kg/day
Protocol: Bacterial reverse mutation assay (Study no. YL18407). The bacterial reverse mutation assay of STP0404 was performed in two conditions (with or without metabolic activation) for the dose range-finding test (doses of STP0404rangingfrom 2.29 to 5,000μg/plate) and the main test (doses of STP0404 ranging from 19.5 to 5,000 μg/plate) in comparison with negative control (DMSO) and active controls (sodium azide, 2-(2-furyl)-3-(5-nitro-2-furyl) acrylamide, 2-aminoanthracene, 9-aminoacridine hydrochloride). Salmonella typhimurium (TA100, TA1535) and Escherichia coli (WP2uvrA) were used for detection of base-pair substitutions. Salmonella typhimurium (TA98, TA1537) was used for detection of frameshift mutations. Chromosomal Aberration Test of STP0404 in Cultured Mammalian Cells (Study no. YL18408). Presence/absence of genotoxicity of STP0404 was determined using chromosomal aberration test carried out in CHL/IU cells. The test comprised a dose range-finding test and a main test. Micronucleus Study of STP0404 by oral administration in Rats (Study no. YL18409). STP0404 was administered orally to SD rats (3/group in preliminary test and 6/group in the main test) at dose levels of 500, 1000 and 2000 mg/kg/day once daily for 2 days in a two-test study (preliminary test and main test) to investigate the genotoxicity profile of STP0404. […] Bone marrow smear slides were evaluated (INA Research, Japan).

Structure (SMILES): Cc1nc2c(c(C)c(C)n2Cc2cnn(C)c2)c(-c2ccc(Cl)cc2)c1[C@H](OC(C)(C)C)C(=O)O [STP0404]
- AUC ([1]; iv, 5 mg/kg (i.v)): 42.7 µM·h
- half-life ([1]; iv, 5 mg/kg (i.v)): 3.83 h
- AUC ([1]; po, 10 mg/kg (p.o)): 78 µM·h
- Cmax ([1]; po, 10 mg/kg (p.o)): 21.4 µM
- half-life ([1]; po, 10 mg/kg (p.o)): 4.56 h
- bioavailability ([1]; po, 10 mg/kg (p.o), read-out: Ft (oral bioavailability)): 92.8%
- inhibition of SIVmac239 [2]: did not inhibit; also recorded: failed to inhibit
- EC50 to activate drug metabolizing factors (in words) [3]: comparatively high concentrations
- EC50 [4]: 147 ± 20 nM
- bone marrow cell proliferation inhibitory potential [5]: lacked
- micronucleus-inducing potential [5]: lacked
